# Assay results: patent US20140010876A1, “PHARMACEUTICAL ADMINISTRATION FORMS COMPRISING 5-CHLORO-N-(METHYL)-2-THIOPHENECARBOXAMIDE” (BAYER PHARMA AKTIENGESELLSCHAFT, priority 2012, published 2014)
# Test: solubility of the active compound (I) in water
# Format: physicochemical
# Experimental: During the development of formulations, the physicochemical characteristics have to be taken into account in combination with the particular biological properties of the active compound (I). The physicochemical characteristics include, for example, the poor solubility of the active compound (I) in water (about 7 mg/l). The particular biological properties of the active compound (I) are a food-dependent bioavailability (the “food effect”) which, in the case of rapid-release tablet formulations, is noticeable at dosages from about 15 mg, and a limited absorption from the lower sections of the intestine. As a consequence, the desired administration once daily requires specific pharmaceutical formulations releasing the active compound (I) taking into account its biopharmaceutical characteristics, such that on the one hand the active compound (I) is present in an amount sufficient to have a pharmaceutical effect and that on the other hand the active compound (I) is released in a manner such that its challenging properties with respect to solubility, food effect and absorption are overcome.
smiles,measurement,value
"O=C(NC[C@H]1CN(c2ccc(N3CCOCC3=O)cc2)C(=O)O1)c1ccc(Cl)s1 [active compound (I), 5-chloro-N-({(5S)-2-oxo-3-[4-(3-oxo-4-morpholinyl)phenyl]-1,3-oxazolidin-5-yl}methyl)-2-thiophenecarboxamide]",solubility,~7 µg/mL
